Measured values published in US7273886B2 (Genentech, Inc., priority 2003, dated 2007).
pKi: −log10 of the molar value. Converted amounts (≈) assume the structure as drawn. Values belong to the compound of their own block, whether it stands above or below them.

Columns and labels:
[1] = Plasma concentrations following IV bolus administration in rhesus monkey; type: in vivo; conditions: IV bolus 1 mg/kg
Protocol: Dosing of Benzofuran Compounds in Rhesus Monkeys
IV Bolus: Inhibitors were formulated in a 1 mg/ml solution of 20–30% PEG 400/sterile water. The drug was administered as an IV bolus over 1 minute at 1 mg/kg. 1.0 ml blood samples were collected at each time point on 20 μl 8.5% K2EDTA. Blood samples for the IV dosed animals were be collected from a short, large bore catheter (needle <25G) placed in the saphenous or cephalic vein for all time points up to 3 hours after dosing. The catheters were then removed, the animals returned to their cages and latter samples collected by venipuncture. Venipuncture samples can be obtained from any superficial vein that can easily be compressed (e.g. cephalic, or saphenous but not from the femoral plexus). Sample time points were taken generally at the following times: pre-dose, 2, 5, 10, 20, 30, 40, 60, 90, 120, 150, 180 minutes and at 4, 6, 12, 24, and 48 hours.

TFVIIa = target: T1, TFVIIa (Homo sapiens, UniProt P08709); assay: Tissue Factor/Factor VIIa antagonist assay (Ki); type: biochemical
T1 construct: recombinant human factor VIIa; NB #25942–16
T1 sequence (P08709 61-212 limits assumed): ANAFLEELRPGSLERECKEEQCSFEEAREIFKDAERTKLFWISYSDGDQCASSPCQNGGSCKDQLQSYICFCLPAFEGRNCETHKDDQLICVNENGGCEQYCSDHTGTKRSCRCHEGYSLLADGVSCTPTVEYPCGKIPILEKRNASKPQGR
T1 sequence (P08709 213-466 limits assumed): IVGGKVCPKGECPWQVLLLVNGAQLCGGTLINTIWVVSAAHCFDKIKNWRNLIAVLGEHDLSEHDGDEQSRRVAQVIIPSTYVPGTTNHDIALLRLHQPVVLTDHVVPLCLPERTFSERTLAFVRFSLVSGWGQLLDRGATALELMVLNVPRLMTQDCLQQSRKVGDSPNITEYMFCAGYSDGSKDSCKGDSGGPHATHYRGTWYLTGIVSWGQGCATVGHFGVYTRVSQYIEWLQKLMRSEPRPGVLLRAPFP
T1 sequence (P13726 33-251 partner limits assumed): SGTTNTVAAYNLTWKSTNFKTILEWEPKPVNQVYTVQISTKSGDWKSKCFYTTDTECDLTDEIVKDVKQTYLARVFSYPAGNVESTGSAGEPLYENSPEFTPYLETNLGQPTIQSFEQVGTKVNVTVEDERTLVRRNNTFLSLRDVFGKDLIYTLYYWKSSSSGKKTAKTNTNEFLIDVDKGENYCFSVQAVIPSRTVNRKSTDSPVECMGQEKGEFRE
Protocol: Tissue Factor/Factor VIIa Antagonist Assay
This procedure can be used to determine the constant of inhibition (Ki) for a sample compound of the invention.
• Assay Buffer: 100 mM Hepes pH 7.8, 140 mM NaCl, 0.1% PEG-8000, 0.02% Tween-80, 5 mM CaCl2 Coagulation • Factor: recombinant human factor VIIa (NB #25942–16) • Cofactor: soluble Tissue Factor (1-219) • Substrate: Chromozym-tPA (Boehringer Mannheim, Cat. #1093 037) Reconstitute at 20 mM in H2O. Dilute to 4 mM in assay buffer with CaCl2 prior to use. • Samples: Dilute samples to 3% DMSO in assay buffer (lacking CaCl2). Procedure: • 1. Prepare a solution of 2 μg/mL (90 nM) tissue factor and 1.5 μg/mL (30 nM) factor VIIa in assay buffer with CaCl2. • 2. Incubate for 15 minutes at room temperature. • 3. Add 50 μL sample to each well. • 4. Add 50 μL tissue factor/factor VIIa solution to each well. • 5. Incubate for 15 minutes at room temperature with gentle agitation. • 6. Add 50 μL substrate to each well. • 7. Agitate plate for 20–25 sec. • 8. Monitor absorbance at 405 nm every 10 sec for a total of 5 minutes at room temperature. • 9. Calculate Vmax over 10 points.

F. Xa = target: T2, F. Xa (Homo sapiens, UniProt P00742); assay: Factor Xa assay (Ki); type: biochemical
T2 construct: This complex converts factor X to Xa; purchased Hematologic Technologies
T2 sequence (P00742 41-179 limits assumed): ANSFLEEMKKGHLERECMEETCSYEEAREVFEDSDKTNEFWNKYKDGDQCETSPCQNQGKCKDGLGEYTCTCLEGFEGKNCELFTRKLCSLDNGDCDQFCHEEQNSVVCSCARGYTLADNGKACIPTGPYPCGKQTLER
T2 sequence (P00742 235-488 limits assumed): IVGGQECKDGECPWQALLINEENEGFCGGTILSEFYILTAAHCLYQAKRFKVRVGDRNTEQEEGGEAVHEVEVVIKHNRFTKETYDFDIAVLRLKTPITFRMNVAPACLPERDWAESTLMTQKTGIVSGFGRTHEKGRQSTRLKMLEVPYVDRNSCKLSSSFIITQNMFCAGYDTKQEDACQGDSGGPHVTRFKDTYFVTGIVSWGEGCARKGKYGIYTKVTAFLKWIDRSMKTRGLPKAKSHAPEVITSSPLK
Protocol: (§1) Factor Xa, Thrombin, and Plasma Kallikrein Assays
(§2) These procedures can be used to determine the constant of inhibition (Ki) for a sample compound of the invention.
(§3) • Assay Buffer: 100 mM Hepes pH 7.8, 140 mM NaCl, 0.1% PEG-8000, 0.02% Tween-80 • Coagulation human Factor Xa, Thrombin, or Plasma Kallikrein (Hematologic Technologies) • Factor: Dilute to 0.45 μg/mL (9.8 nM) in assay buffer. • Substrate: S-2222, S2366 or S2302—(See below—Chromogenix Inc,) Reconstitute at 5 mM in H2O. Dilute to 1.5 mM in assay buffer prior to use. • Samples: Dilute samples to 3% DMSO in assay buffer. Procedure: • 1. Add 50 μL sample to each well. • 2. Add 50 μL appropriately diluted coagulation factor to each well. • 3. Incubate for 5 minutes at room temperature with gentle agitation. • 4. Add 50 μL appropriately diluted substrate to each well. • 5. Agitate plate for 20–25 sec. • 6. Monitor absorbance at 405 nm every 10 sec for a total of 5 minutes at room temperature. • 7. Calculate Vmax over 10 points. Assay—Enzyme, Substrate and Final Concentrations

Thrombin = target: T3, Thrombin (Homo sapiens, UniProt P00734); assay: Thrombin assay (Ki); type: biochemical
T3 construct: rapidly converts prothrombin to thrombin; purchased Hematologic Technologies
Protocol: as §1, §2, §3

Trypsin = Trypsin inhibition (Ki); type: biochemical
Plasmin = Plasmin (Homo sapiens, UniProt P00747); assay: Plasmin inhibition (Ki); type: biochemical
Sequence of Plasmin (P00747 581-810 limits assumed, species assumed): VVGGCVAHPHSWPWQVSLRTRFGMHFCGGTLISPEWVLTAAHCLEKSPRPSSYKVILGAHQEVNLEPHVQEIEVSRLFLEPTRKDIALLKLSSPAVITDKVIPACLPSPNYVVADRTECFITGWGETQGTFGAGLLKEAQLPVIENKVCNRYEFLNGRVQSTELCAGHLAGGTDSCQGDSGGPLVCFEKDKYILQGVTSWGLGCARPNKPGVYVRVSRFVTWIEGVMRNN
Sequence of Plasmin (P00747 97-580 limits assumed, species assumed): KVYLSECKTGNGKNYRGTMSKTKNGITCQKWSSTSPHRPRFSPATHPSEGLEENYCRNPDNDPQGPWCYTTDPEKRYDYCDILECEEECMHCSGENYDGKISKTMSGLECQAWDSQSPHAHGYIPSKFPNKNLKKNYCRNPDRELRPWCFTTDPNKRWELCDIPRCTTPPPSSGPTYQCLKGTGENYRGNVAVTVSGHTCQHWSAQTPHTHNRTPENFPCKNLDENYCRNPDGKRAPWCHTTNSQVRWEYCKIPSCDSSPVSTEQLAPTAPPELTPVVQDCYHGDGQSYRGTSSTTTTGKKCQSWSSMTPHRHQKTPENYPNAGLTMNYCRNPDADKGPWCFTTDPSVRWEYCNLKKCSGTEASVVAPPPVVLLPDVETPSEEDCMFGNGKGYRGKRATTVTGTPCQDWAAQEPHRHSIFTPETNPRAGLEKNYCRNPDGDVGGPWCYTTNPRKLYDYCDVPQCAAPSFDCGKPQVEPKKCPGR

APC [2] = target: APC (Homo sapiens, UniProt P04070); assay: APC inhibition (Ki); type: biochemical; conditions: APC
Sequence of APC (Homo sapiens, UniProt P04070) (P04070 212-461 limits assumed): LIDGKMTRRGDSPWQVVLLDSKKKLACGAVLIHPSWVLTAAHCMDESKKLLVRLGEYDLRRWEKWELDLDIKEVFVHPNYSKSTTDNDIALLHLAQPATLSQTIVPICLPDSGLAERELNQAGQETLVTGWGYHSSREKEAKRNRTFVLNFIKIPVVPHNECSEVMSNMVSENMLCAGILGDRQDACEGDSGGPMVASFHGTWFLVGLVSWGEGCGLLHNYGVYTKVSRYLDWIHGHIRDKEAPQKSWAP

APC [3] = assay: APC inhibition (Ki); type: biochemical; conditions: APC relative to TFVIIa
Plasma Kallikrein = target: T4, Plasma Kallikrein (Homo sapiens, UniProt P03952); assay: Plasma Kallikrein assay (Ki); type: biochemical
T4 construct: human Factor Xa, Thrombin, or Plasma Kallikrein (Hematologic Technologies); purchased Hematologic Technologies
T4 sequence (P03952 20-390 limits assumed): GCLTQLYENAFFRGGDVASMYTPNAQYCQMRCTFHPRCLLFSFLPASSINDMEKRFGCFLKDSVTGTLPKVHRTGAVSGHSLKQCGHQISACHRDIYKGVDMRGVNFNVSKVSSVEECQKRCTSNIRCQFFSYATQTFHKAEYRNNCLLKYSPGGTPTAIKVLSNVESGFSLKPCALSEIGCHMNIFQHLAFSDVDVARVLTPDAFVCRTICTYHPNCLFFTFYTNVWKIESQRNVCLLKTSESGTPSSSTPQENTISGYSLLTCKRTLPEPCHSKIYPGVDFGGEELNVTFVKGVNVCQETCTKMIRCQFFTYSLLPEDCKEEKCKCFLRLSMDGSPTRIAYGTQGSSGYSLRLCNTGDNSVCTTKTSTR
T4 sequence (P03952 391-638 limits assumed): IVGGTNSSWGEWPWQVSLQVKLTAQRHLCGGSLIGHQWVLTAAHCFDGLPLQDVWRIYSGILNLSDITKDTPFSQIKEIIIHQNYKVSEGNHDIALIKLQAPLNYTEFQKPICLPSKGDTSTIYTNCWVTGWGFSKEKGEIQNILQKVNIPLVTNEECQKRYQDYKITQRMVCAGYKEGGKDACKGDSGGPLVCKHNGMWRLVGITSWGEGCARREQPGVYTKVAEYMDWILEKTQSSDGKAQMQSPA
Protocol: as §1, §2, §3

Acetylcholinesterase = Acetylcholinesterase (Homo sapiens, UniProt P22303); assay: Acetylcholinesterase inhibition (Ki); type: biochemical
Sequence of Acetylcholinesterase (P22303 32-614, species assumed): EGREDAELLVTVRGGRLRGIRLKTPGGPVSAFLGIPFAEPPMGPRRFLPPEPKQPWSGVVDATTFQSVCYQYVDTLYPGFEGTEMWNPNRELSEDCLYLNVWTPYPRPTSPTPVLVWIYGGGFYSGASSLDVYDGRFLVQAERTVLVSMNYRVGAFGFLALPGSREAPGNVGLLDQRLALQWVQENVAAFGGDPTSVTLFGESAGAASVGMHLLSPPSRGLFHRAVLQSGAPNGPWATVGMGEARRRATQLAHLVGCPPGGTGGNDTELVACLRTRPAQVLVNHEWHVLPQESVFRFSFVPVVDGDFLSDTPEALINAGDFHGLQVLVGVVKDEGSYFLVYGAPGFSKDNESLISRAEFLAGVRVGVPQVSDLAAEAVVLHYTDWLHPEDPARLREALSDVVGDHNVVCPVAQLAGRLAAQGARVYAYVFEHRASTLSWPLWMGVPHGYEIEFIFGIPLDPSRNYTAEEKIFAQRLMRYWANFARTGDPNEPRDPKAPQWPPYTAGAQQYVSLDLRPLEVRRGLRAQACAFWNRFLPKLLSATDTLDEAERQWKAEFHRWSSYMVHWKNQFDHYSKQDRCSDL

Complement CS1 = target: T5, Complement CS1 (Homo sapiens, UniProt P09871); assay: Complement CS1 inhibition (Ki); type: biochemical
T5 sequence (P09871 16-688): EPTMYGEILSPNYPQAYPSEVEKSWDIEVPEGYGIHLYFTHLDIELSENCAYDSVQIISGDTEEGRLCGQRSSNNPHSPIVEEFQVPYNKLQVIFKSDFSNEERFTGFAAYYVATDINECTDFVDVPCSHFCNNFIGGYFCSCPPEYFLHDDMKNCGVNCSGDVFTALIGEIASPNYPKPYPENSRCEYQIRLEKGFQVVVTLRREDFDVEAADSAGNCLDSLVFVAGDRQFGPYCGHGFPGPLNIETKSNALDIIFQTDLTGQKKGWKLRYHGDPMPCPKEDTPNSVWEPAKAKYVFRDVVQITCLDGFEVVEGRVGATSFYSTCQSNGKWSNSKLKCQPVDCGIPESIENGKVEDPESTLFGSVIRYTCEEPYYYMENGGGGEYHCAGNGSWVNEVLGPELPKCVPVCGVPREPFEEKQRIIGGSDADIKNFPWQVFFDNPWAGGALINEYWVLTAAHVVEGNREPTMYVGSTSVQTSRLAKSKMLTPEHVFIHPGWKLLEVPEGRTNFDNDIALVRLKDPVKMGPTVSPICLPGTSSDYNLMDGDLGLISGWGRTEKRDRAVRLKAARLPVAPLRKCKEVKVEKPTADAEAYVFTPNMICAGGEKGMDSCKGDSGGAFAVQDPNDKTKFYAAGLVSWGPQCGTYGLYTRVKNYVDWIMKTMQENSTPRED

XIA [4] = target: XIA (Homo sapiens, UniProt P03951); assay: XIA inhibition (Ki); type: biochemical; conditions: XIA
Sequence of XIA (Homo sapiens, UniProt P03951) (P03951 388-625 limits assumed): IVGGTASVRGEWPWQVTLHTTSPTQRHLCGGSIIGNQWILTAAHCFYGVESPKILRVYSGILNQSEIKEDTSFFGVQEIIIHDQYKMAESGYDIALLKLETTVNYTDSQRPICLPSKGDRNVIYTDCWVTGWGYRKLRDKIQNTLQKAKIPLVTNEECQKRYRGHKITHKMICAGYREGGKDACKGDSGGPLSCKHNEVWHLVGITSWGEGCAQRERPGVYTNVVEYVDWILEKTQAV

XIA [5] = assay: XIA inhibition (Ki); type: biochemical; conditions: XIA relative to TFVIIa
XIIA = target: T6, XIIA (Homo sapiens, UniProt P00748); assay: XIIA inhibition (Ki); type: biochemical
T6 sequence (P00748 373-615 limits assumed): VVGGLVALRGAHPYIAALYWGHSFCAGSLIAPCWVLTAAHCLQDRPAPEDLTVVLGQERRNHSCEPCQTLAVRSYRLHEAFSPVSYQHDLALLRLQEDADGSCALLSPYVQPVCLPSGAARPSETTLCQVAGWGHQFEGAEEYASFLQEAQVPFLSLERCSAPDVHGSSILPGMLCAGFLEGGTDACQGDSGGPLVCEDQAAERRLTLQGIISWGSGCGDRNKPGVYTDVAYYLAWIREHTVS

tPA = tPA (Homo sapiens, UniProt P00750); assay: tPA inhibition (Ki); type: biochemical
Sequence of tPA (P00750 36-562, species assumed): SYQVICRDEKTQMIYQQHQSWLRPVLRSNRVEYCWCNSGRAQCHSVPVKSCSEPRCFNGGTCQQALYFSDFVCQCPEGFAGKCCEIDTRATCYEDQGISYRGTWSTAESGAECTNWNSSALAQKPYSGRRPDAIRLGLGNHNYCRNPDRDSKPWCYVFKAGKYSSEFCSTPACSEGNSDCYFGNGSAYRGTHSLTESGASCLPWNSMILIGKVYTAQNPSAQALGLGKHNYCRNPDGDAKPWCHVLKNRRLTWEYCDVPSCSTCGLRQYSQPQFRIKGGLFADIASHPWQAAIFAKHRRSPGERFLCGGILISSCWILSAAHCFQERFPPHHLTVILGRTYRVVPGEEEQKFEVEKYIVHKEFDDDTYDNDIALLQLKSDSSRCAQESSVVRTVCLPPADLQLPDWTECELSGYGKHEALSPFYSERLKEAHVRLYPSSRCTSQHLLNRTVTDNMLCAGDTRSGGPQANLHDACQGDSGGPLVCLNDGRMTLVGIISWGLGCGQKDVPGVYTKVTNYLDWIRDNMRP

Urokinase = Urokinase (Homo sapiens, UniProt P00749); assay: Urokinase inhibition (Ki); type: biochemical
Chymotrypsin = Chymotrypsin inhibition (Ki); type: biochemical
HGFA = target: T7, HGFA (Homo sapiens, UniProt Q04756); assay: HGFA inhibition (Ki); type: biochemical
T7 sequence (Q04756 373-655): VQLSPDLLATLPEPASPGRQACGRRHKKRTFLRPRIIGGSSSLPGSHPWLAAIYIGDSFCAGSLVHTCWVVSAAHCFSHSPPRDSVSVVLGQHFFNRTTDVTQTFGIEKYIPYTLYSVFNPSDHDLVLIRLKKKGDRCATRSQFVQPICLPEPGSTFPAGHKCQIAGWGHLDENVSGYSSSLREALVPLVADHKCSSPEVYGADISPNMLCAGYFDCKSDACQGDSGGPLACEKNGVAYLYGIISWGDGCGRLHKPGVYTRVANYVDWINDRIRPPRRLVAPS

Solubility in water = type: physicochemical; conditions: aqueous buffer, thermodynamic from solid, amorphous solid

SMILES: CCOc1cc(OCC)cc(C(Nc2ccc(C(=N)N)cc2)C(=O)NS(=O)(=O)CC)c1 (stereo not shown)
- clearance [1]: 8.6 mL/min/kg body weight
- half-life ([1]; plasma): 1.25 h

SMILES: CCc1cc(C(Nc2ccc(C(=N)N)cc2)C(=O)NS(N)(=O)=O)cc2c(C)coc12 (stereo not shown) [Compound 8]
- pKi (TFVIIa; TFVIIa): 8.40
- Selectivity (TFVIIa; TFVIIa (reference)): 1 X
- pKi (F. Xa; F. Xa): < 5.15
- Selectivity (F. Xa; F. Xa relative to TFVIIa): >1750 X
- pKi (Thrombin; Thrombin): 6.08
- Selectivity (Thrombin; Thrombin relative to TFVIIa): 207 X
- pKi (Trypsin; Trypsin): 5.68
- Selectivity (Trypsin; Trypsin relative to TFVIIa): 525 X
- pKi (Plasmin; Plasmin): 6.06
- Selectivity (Plasmin; Plasmin relative to TFVIIa): 220 X
- pKi (APC [2]): 5.84
- Selectivity (APC [3]): 360 X
- pKi (Plasma Kallikrein; Plasma Kallikrein): 7.09
- Selectivity (Plasma Kallikrein; Plasma Kallikrein relative to TFVIIa): 20 X
- pKi (Acetylcholinesterase): < 5.17
- Selectivity (Acetylcholinesterase; Acetylcholinesterase relative to TFVIIa): 1700 X
- pKi (Complement CS1; Complement CS1): < 5.19
- Selectivity (Complement CS1; Complement CS1 relative to TFVIIa): >1625 X
- pKi (XIA [4]): < 5.10
- Selectivity (XIA [5]): >2000 X
- pKi (XIIA; XIIA): < 5.06
- Selectivity (XIIA; XIIA relative to TFVIIa): >2175 X
- pKi (tPA; tPA): < 5.11
- Selectivity (tPA; tPA relative to TFVIIa): >1950 X
- pKi (Urokinase; Urokinase): < 5.17
- Selectivity (Urokinase; Urokinase relative to TFVIIa): >1700 X
- pKi (Chymotrypsin; Chymotrypsin): < 5.16
- Selectivity (Chymotrypsin; Chymotrypsin relative to TFVIIa): >1725 X
- pKi (HGFA; HGFA): 5.19
- Selectivity (HGFA; HGFA relative to TFVIIa): 1600 X

- solubility (Solubility in water; pH 2): 115 µM (≈ 65 µg/mL)
- solubility (Solubility in water; pH 6.5): 98 µM (≈ 55.4 µg/mL)
SMILES: CCc1cc(C(Nc2ccc(/C(N)=N\OCc3ccc(OC)cc3)cc2)C(=O)NS(N)(=O)=O)cc2c(C)coc12 (stereo not shown) [Compound 26]
